PubChem BioAssay AID328 (DTP/NCI, 2004)
Values joined by “and” are separate entries in the source; they are usually repeats but may differ in a detail not shown here. Identical values can stand only once. Toxic doses and inconclusive results are not listed. How the source made its calls: active means survival T/C of 150% or more; inactive means T/C below 125% in these data.

Tested on: BDF1 mice, P388 leukemia ip, median survival T/C
Assay: NCI In Vivo Anticancer Drug Screen. Data for tumor model P388 Leukemia (intraperitoneal) in B6D2F1 (BDF1) mice
Settings: endpoint: median survival time, higher = longer survival
Procedure, shortened: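 Transplantable tumour in mice; compound vs vehicle dosing; survival scored; ratio of treated to control reported.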

[1] = dose: 100.0 mg/kg/injection, schedule: Q01DX009 (ip), vehicle: saline with Tween-80
[2] = dose: 200.0 mg/kg/injection, schedule: Q01DX009 (ip), vehicle: saline with Tween-80
[3] = dose: 400.0 mg/kg/injection, schedule: Q01DX009 (ip), vehicle: saline with Tween-80
[4] = dose: 12.5 mg/kg/injection, schedule: Q01DX009 (ip), vehicle: saline
[5] = dose: 25.0 mg/kg/injection, schedule: Q01DX009 (ip), vehicle: saline
[6] = dose: 100.0 mg/kg/injection, schedule: Q01DX009 (ip), vehicle: saline
[7] = dose: 200.0 mg/kg/injection, schedule: Q01DX009 (ip), vehicle: saline
[8] = dose: 400.0 mg/kg/injection, schedule: Q01DX009 (ip), vehicle: saline
[9] = dose: 100.0 mg/kg/injection, schedule: Q04DX003 (ip), vehicle: Klucel (hydroxypropylcellulose) (HPC)
[10] = dose: 200.0 mg/kg/injection, schedule: Q04DX003 (ip), vehicle: Klucel (hydroxypropylcellulose) (HPC)
[11] = dose: 6.25 mg/kg/injection, schedule: Q01DX009 (ip), vehicle: saline
[12] = dose: 100.0 mg/kg/injection, schedule: Q01DX009 (ip), vehicle: Klucel (hydroxypropylcellulose) (HPC)
[13] = dose: 12.5 mg/kg/injection, schedule: Q01DX009 (ip), vehicle: saline with Tween-80
[14] = dose: 50.0 mg/kg/injection, schedule: Q01DX009 (ip), vehicle: saline with Tween-80

Measured: T/C

O=C1c2cc(O)c(O)cc2O[C@H](c2ccc(O)c(O)c2)[C@H]1O
inactive: dose: 7.5 mg/kg/injection, schedule: Q01DX010 (ip), vehicle: saline 100 % of control | dose: 15.0 mg/kg/injection, schedule: Q01DX009 (ip), vehicle: saline 113 % of control and 118 % of control | dose: 15.0 mg/kg/injection, schedule: Q01DX010 (ip), vehicle: saline 109 % of control | dose: 30.0 mg/kg/injection, schedule: Q01DX009 (ip), vehicle: saline 100 % of control | dose: 30.0 mg/kg/injection, schedule: Q01DX010 (ip), vehicle: saline 109 % of control | dose: 60.0 mg/kg/injection, schedule: Q01DX009 (ip), vehicle: saline 104 % of control and 122 % of control | dose: 125.0 mg/kg/injection, schedule: Q01DX009 (ip), vehicle: saline 104 % of control | dose: 350.0 mg/kg/injection, schedule: Q01DX009 (ip), vehicle: saline 117 % of control

COc1ccc(/C=C/C(=O)c2ccccc2)cc1Br
inactive: [1] 109 % of control | [2] 109 % of control | [3] 113 % of control

NC1=NNC(N)=NN1
inactive: [4] 94 % of control | [5] 100 % of control | dose: 50.0 mg/kg/injection, schedule: Q01DX009 (ip), vehicle: saline 96 % of control

CC1CN(Cc2ccccc2O)CC(C)N1 (stereo not given)
inactive: dose: 6.25 mg/kg/injection, schedule: Q04DX003 (ip), vehicle: water 103 % of control | dose: 12.5 mg/kg/injection, schedule: Q04DX003 (ip), vehicle: water 103 % of control | dose: 25.0 mg/kg/injection, schedule: Q04DX003 (ip), vehicle: water 103 % of control | dose: 50.0 mg/kg/injection, schedule: Q04DX003 (ip), vehicle: water 109 % of control | dose: 100.0 mg/kg/injection, schedule: Q04DX003 (ip), vehicle: water 97 % of control

COC(=O)C(=NO)C(=O)OC
inactive: [6] 104 % of control | [7] 96 % of control | [8] 96 % of control

FC(F)(F)COP1SCCS1
inactive: dose: 25.0 mg/kg/injection, schedule: Q01DX005 (ip), vehicle: saline with Tween-80 97 % of control | dose: 50.0 mg/kg/injection, schedule: Q01DX005 (ip), vehicle: saline with Tween-80 97 % of control

CCCCCCCCC(O)CCCCC (stereo not given)
inactive: [9] 108 % of control | [10] 87 % of control | dose: 400.0 mg/kg/injection, schedule: Q04DX003 (ip), vehicle: Klucel (hydroxypropylcellulose) (HPC) 95 % of control

O=c1cc(CO)occ1O.O=c1cc(CO)occ1O.[O]=[V]
inactive: [11] 105 % of control | [4] 94 % of control | [5] 100 % of control

CC(=N/NC(N)=S)/C(C)=N/NC(N)=S
inactive: [12] 100 % of control | dose: 200.0 mg/kg/injection, schedule: Q01DX009 (ip), vehicle: Klucel (hydroxypropylcellulose) (HPC) 100 % of control | dose: 400.0 mg/kg/injection, schedule: Q01DX009 (ip), vehicle: Klucel (hydroxypropylcellulose) (HPC) 100 % of control

CCCCCCCCCCCC(c1ccccc1)[N+](C)(C)Cc1ccccc1 (stereo not given)
inactive: dose: 0.25 mg/kg/injection, schedule: Q01DX010 (ip), vehicle: saline 100 % of control | dose: 0.5 mg/kg/injection, schedule: Q01DX010 (ip), vehicle: saline 108 % of control | dose: 1.0 mg/kg/injection, schedule: Q01DX010 (ip), vehicle: saline 116 % of control | dose: 2.0 mg/kg/injection, schedule: Q01DX010 (ip), vehicle: saline 108 % of control

O=S(=O)(O)C(I)(I)S(=O)(=O)O
inactive: dose: 100.0 mg/kg/injection, schedule: Q04DX003 (ip), vehicle: saline 100 % of control | dose: 200.0 mg/kg/injection, schedule: Q04DX003 (ip), vehicle: saline 95 % of control | dose: 400.0 mg/kg/injection, schedule: Q04DX003 (ip), vehicle: saline 104 % of control

Oc1c(Cl)c(Cl)c(Cl)c2cccnc12
inactive: dose: 3.13 mg/kg/injection, schedule: Q01DX009 (ip), vehicle: saline with Tween-80 103 % of control | dose: 6.25 mg/kg/injection, schedule: Q01DX009 (ip), vehicle: saline with Tween-80 106 % of control | [13] 104 % of control

Cc1ccc(NC(=O)Oc2ccc(Cl)c(C)c2)c([N+](=O)[O-])c1
inactive: [13] 108 % of control | dose: 25.0 mg/kg/injection, schedule: Q01DX009 (ip), vehicle: saline with Tween-80 102 % of control | [14] 117 % of control

CCOC(=O)/C(=C\c1ccccc1)O/C(=C/c1ccccc1)C(=O)OCC
inactive: dose: 100.0 mg/kg/injection, schedule: Q04DX002 (ip), vehicle: saline with Tween-80 89 % of control | dose: 400.0 mg/kg/injection, schedule: Q04DX002 (ip), vehicle: saline with Tween-80 93 % of control

O=c1ccc2cc(OC3OC(CO)C(O)C(O)C3O)c(O)cc2o1 (stereo not given)
inactive: [6] 95 % of control | dose: 100.0 mg/kg/injection, schedule: Q04DX003 (ip), vehicle: alcohol 105 % of control | [7] 104 % of control | dose: 200.0 mg/kg/injection, schedule: Q04DX003 (ip), vehicle: alcohol 100 % of control | [8] 109 % of control | dose: 400.0 mg/kg/injection, schedule: Q04DX003 (ip), vehicle: alcohol 110 % of control

COc1cc2c(c(OC)c1OC)-c1cc3c(cc1[C@@H](O)[C@@H]1COC(=O)[C@@H]21)OCO3
inactive: dose: 6.2 mg/kg/injection, schedule: Q01DX009 (ip), vehicle: saline 90 % of control | dose: 9.3 mg/kg/injection, schedule: Q01DX009 (ip), vehicle: saline 86 % of control | dose: 14.0 mg/kg/injection, schedule: Q01DX009 (ip), vehicle: saline 109 % of control | dose: 21.0 mg/kg/injection, schedule: Q01DX009 (ip), vehicle: saline 100 % of control

NC(CSC(c1ccccc1)(c1ccccc1)c1ccccc1)C(=O)NCC(=O)O (stereo not given)
inactive: dose: 177.0 mg/kg/injection, schedule: Q01DX009 (ip), vehicle: saline with Tween-80 111 % of control | [3] 107 % of control

O=c1[nH]c(=O)n(C2CC(O)C(CO)O2)cc1I (stereo not given)
inactive: dose: 10.0 mg/kg/injection, schedule: Q01DX009 (ip), vehicle: saline with Tween-80 109 % of control | dose: 20.0 mg/kg/injection, schedule: Q01DX009 (ip), vehicle: saline with Tween-80 107 % of control | dose: 40.0 mg/kg/injection, schedule: Q01DX009 (ip), vehicle: saline with Tween-80 92 % of control and 109 % of control | dose: 80.0 mg/kg/injection, schedule: Q01DX009 (ip), vehicle: saline with Tween-80 106 % of control and 118 % of control | dose: 320.0 mg/kg/injection, schedule: Q01DX009 (ip), vehicle: saline with Tween-80 90 % of control

COc1ccc2c(c1)c1c(C)c3cnccc3c(C)c1n2CCCN
inactive: dose: 1.56 mg/kg/injection, schedule: Q01DX009 (ip), vehicle: saline 95 % of control | dose: 3.12 mg/kg/injection, schedule: Q01DX009 (ip), vehicle: saline 95 % of control | dose: 3.12 mg/kg/injection, schedule: Q04DX003 (ip), vehicle: saline 112 % of control | [11] 111 % of control | dose: 6.25 mg/kg/injection, schedule: Q04DX003 (ip), vehicle: saline 121 % of control | [4] 105 % of control | dose: 12.5 mg/kg/injection, schedule: Q04DX003 (ip), vehicle: saline 107 % of control | dose: 25.0 mg/kg/injection, schedule: Q04DX003 (ip), vehicle: saline 101 % of control and 104 % of control

CCN(CC)CCNc1ccc(N=Nc2ccc(SC)cc2)c2ccccc12
inactive: dose: 25.0 mg/kg/injection, schedule: Q01DX009 (ip), vehicle: Klucel (hydroxypropylcellulose) (HPC) 105 % of control | dose: 50.0 mg/kg/injection, schedule: Q01DX009 (ip), vehicle: Klucel (hydroxypropylcellulose) (HPC) 100 % of control | dose: 50.0 mg/kg/injection, schedule: Q04DX003 (ip), vehicle: Klucel (hydroxypropylcellulose) (HPC) 100 % of control | [12] 105 % of control | [9] 104 % of control | [10] 90 % of control

OC(c1ccccc1)c1ccccc1CN1CCCNC1=S (stereo not given)
inactive: [14] 95 % of control | [1] 103 % of control | [2] 94 % of control

CSc1ccc(O)c(S)c1
inactive: [14] 118 % of control | [1] 122 % of control | [2] 124 % of control
